Molecules are shown by their SMILES. Entries after “also recorded” stand apart in the source; their conditions may differ. Like-named read-outs stand apart in the source and are kept apart here.

In series [1] the test system is SJCRH30 cells. Description: Caspase-3/7 activity assay in SJCRH30 cells. The class given is cell-based, human. Particulars: 24 h. As for the experimental part:
(§1) The activity of caspase-3/7 was detected with the CellEvent^TM Caspase-3/7 Green detection kit (Thermo Fisher Scientific, C10423), following the manufacturer’s instructions. SJCRH30 and RD cells were seeded at 2 × 10^4 cells/well in 96-well plates. […] Stained cells were observed under fluorescent microscopy (LEICA, DMI3000 B). Drugs were treated in triplicates and 4 pictures of each well were captured. The percentage of caspase-3/7 positive cells per field of view was quantified using ImageJ software.

Series [2] has as its system GDSC-SJCRH30 cell line. Particulars: cited from earlier work; for Iorio_SJCRH30: Table S2, published drug response ref Iorio et al. (2016).
For series [3] the following is noted: heavily pre-treated soft-tissue sarcoma patients ref 43; cited from earlier work.
Series [4] has as its system SJCRH30 (human alveolar rhabdomyosarcoma) cells. Description: MTT cell viability assay in SJCRH30 cells. It counts as cell-based. Particulars: 24 h; for anti-proliferation / anti-cancer activity in SJCRH30 cells: in words; for IC50: SJ-S drugs, SJCRH30 cells, read-out: IC50(μM) RMS. An excerpt: (§2) The RD (human embryonal rhabdomyosarcoma) and CCD-18Co (human colon fibroblast) cell lines were purchased from the Korean Cell Line Bank (KCLB). SJCRH30 (human alveolar rhabdomyosarcoma) cell line was purchased from the American Type Culture Collection (ATCC). RD and CCD-18Co cells were maintained in Dulbecco’s Modified Eagle’s Medium (DMEM; Gibco) supplemented with 10% fetal bovine serum (FBS; Gibco) and 1% penicillin/streptomycin (P/S; Gibco). SJCRH30 cells were maintained in Roswell Park Memorial Institute medium (RPMI 1640, Gibco) supplemented with 10% FBS and 1% P/S. Cells were grown in a humidified chamber containing 5% CO2 at 37°C. Cell line authentication was performed by short tandem repeat profile using PowerPlex® 18D system (Promega Corporation) and sequencing apparatus Applied Biosystems 3130xl Genetic Analyzer (Applied Biosystem) according to manufacturer’s protocol.
(§3) SJCRH30, RD, and CCD-18Co cells were seeded at 2 × 10^4 cells/well in 96-well plates. The candidate drugs were treated for 24 h. AZ628, BIX02189, fedratinib, nutlin-3a, VX-11e, SB590885, NSC207895, tubastatin A, CX-5461, navitoclax, GSK1070916 and the FDA-approved drug library were purchased from Selleckchem. GW.44175 was purchased from Cayman chemical. MTT (3-(4,5-Dimethylthiazol-2-yl)-2,5-Diphenyltetrazolium bromide, Sigma) cell viability detection reagent diluted in serum free medium was added to each well and incubated for 2 h at 37°C. The supernatant was removed, and 50 μL DMSO was added to dissolve the precipitate. Absorbance was measured at 570 nm using a Molecular Devices VersaMax microplate reader and SoftMax® Pro 5 software. IC50 was calculated with GraphPad Prism 7 software.

For series [5], the system named is uterine sarcoma. Particulars: in vitro and in vivo ref 44; cited from earlier work.
In series [6] the test system is RD (human embryonal rhabdomyosarcoma) cells. Description: MTT cell viability assay in RD cells. It counts as cell-based. The conditions noted are these: 24 h; for anti-proliferation / anti-cancer activity in RD cells: in words; for IC50: RD-S drugs, RD cells, read-out: IC50(μM) RMS.
Source text: as §2, §3
(Tetrazolium dyes change colour on reduction, which living cells bring about.)

For series [7], the system named is GDSC-RD cell line. Particulars: cited from earlier work; for Iorio_RD: Table S2, published drug response ref Iorio et al. (2016).
Series [8] concerns CCD-18Co (human colon fibroblast) cells. Description: MTT cell viability assay in normal control cells. It counts as cell-based. The conditions noted are these: for IC50 / IC50(μM) CCD-18Co: normal cell control, 24 h; for selective anti-cancer activity against the RMS cell lines: based on the CCD-18Co control results.
Source text: as §2, §3

For series [9], the system named is Ewing’s sarcoma. Further details: method as in PMID 26095524. The conditions noted are these: Ewing’s sarcoma ref 42; cited from earlier work.
In series [10] the test system is RD cells. Description: Caspase-3/7 activity assay in RD cells. It counts as cell-based, human. The conditions noted are these: 24 h. On the procedure: as §1
[11] abbreviates: Homo sapiens, Rhabdomyosarcoma cell.

Turning to `O=C(CCCCCCC(=O)Nc1ccccc1)NO` [Vorinostat], in series [1], the caspase-3/7 activation entry is given as “increased level of caspase-3/7 activation”. In addition, the Iorio_SJCRH30 entry in [2] is “S”. Also, in series [3], the “patients with long-term disease stabilization” value is listed as 6 of the 40. In addition, the “anti-proliferation / anti-cancer activity in SJCRH30 cells” value in [4] is reported as “higher anti-cancer activity; also recorded: reduced cells proliferation to a greater degree than the clinical drugs”. For the same molecule, the uterine sarcoma growth result in series [5] was “inhibited the uterine sarcoma growth”.

Regarding `Cc1cnc(Nc2ccc(OCCN3CCCC3)cc2)nc1Nc1cccc(S(=O)(=O)NC(C)(C)C)c1` [fedratinib], in [6], the “anti-proliferation / anti-cancer activity in RD cells” value is recorded as “high non-selective anti-proliferation activity; also recorded: high in vitro sensitivity”. For the same molecule, in series [7], the Iorio_RD entry was “R” and the “GDSC-RD drug response” value was “resistance”. The Iorio_SJCRH30 entry in [2] is listed as “R”. Also, in series [4], the “anti-proliferation / anti-cancer activity in SJCRH30 cells” value is recorded as “high non-selective anti-proliferation activity; also recorded: high in vitro sensitivity”. For the same molecule, the “toxicity toward the CCD-18Co control line” value in series [8] (MTT, in words) is given as “toxicity toward the control line; also recorded: highly sensitive”.

The IC50 is the concentration that gives 50% inhibition. On to `CC1(C)CCC(c2ccc(Cl)cc2)=C(CN2CCN(c3ccc(C(=O)NS(=O)(=O)c4ccc(N[C@H](CCN5CCOCC5)CSc5ccccc5)c(S(=O)(=O)C(F)(F)F)c4)cc3)CC2)C1` [Navitoclax], for which the Iorio_SJCRH30 result in series [2] was “R”. Also, the “anti-proliferation / anti-cancer activity in SJCRH30 cells” value in [4] is reported as “higher anti-cancer activity”. The IC50 in series [4] (setting [11]) worked out at 0.764 µM; in series [8] (Homo sapiens, CCD-18Co, MTT) it was 0.319 µM.

On to `CN1CCN(c2ccc([N+](=O)[O-])c3no[n+]([O-])c23)CC1` [NSC207895], for which, in series [9], the apoptosis induction result is “induces p53-independent apoptosis”. Also, in series [6], the “anti-proliferation / anti-cancer activity in RD cells” value is “higher anti-cancer activity; also recorded: effectively inhibited cell proliferation compared to vincristine and cyclophosphamide”; the IC50 stood at 6.57 µM. Further, in [7], the Iorio_RD result is “S”. Further, in [2], the Iorio_SJCRH30 entry is “R”. Also, the caspase-3/7 activation entry in series [10] is given as “significantly induced the activation of caspase-3/7”. The “selective anti-cancer activity against the RMS cell lines” value in [8] was “selective anti-cancer activity”. Also, in series [8] (MTT), the “IC50(μM) CCD-18Co” value is “No cytotoxicity”.

`CCn1cc(-c2ccnc3[nH]c(-c4cccc(CN(C)C)c4)cc23)c(-c2ccc(NC(=O)N(C)C)cc2)n1` [GSK1070916]: in series [7], the Iorio_RD entry is reported as “R”. Also, the Iorio_SJCRH30 result in [2] was “R”. Moreover, the “anti-proliferation / anti-cancer activity in SJCRH30 cells” value in series [4] is recorded as “higher anti-cancer activity”. For the same molecule, the concentration for half-maximal inhibition (IC50) in [4] (setting [11]) was 1.4 µM. Also, the “IC50(μM) CCD-18Co” value in series [8] (MTT) is recorded as “No cytotoxicity”.

Take `CCc1cc2c(cc1N1CCC(N3CCOCC3)CC1)C(C)(C)c1[nH]c3cc(C#N)ccc3c1C2=O` [Alectinib]: the Iorio_RD entry in [7] was “R”. In series [2], the Iorio_SJCRH30 result is reported as “S”. For the same molecule, the “anti-proliferation / anti-cancer activity in SJCRH30 cells” value in [4] is given as “higher anti-cancer activity”. Also, the IC50 in [4] (setting [11]) was found to be 3.21 µM; in [8] (Homo sapiens, CCD-18Co, MTT), 5.96 µM.

Regarding `O=C(/C=C/c1cccc(S(=O)(=O)Nc2ccccc2)c1)NO` [Belinostat], the caspase-3/7 activation entry in series [1] is “increased level of caspase-3/7 activation”. Besides, in series [7], the Iorio_RD result was “R”. Further, in series [2], the Iorio_SJCRH30 entry is reported as “R” and the “GDSC-SJCRH30 drug response” value is “resistant”. In series [4], the “anti-proliferation / anti-cancer activity in SJCRH30 cells” value is recorded as “higher anti-cancer activity; also recorded: reduced cells proliferation to a greater degree than the clinical drugs; also recorded: sensitive” and the half-maximal inhibitory concentration (IC50) was determined as 0.146 µM. The half-inhibitory concentration (IC50) in series [4] (setting [11]) was found to be 0.146 µM. For the same molecule, the “selective anti-cancer activity against the RMS cell lines” value in series [8] is listed as “selective anti-cancer activity”. Moreover, in [8] (MTT), the “IC50(μM) CCD-18Co” value is “No cytotoxicity”.

As to `Cc1cnc(Nc2ccc(F)cc2Cl)nc1-c1c[nH]c(C(=O)N[C@H](CO)c2cccc(Cl)c2)c1` [VX-11e], in [6], the “anti-proliferation / anti-cancer activity in RD cells” value is “higher anti-cancer activity” and the half-inhibitory concentration (IC50) stood at 3.79 µM. Further, the Iorio_RD entry in series [7] is “S”. The Iorio_SJCRH30 entry in series [2] was “R”. The molecule also registered an IC50 in series [8] (MTT) of 4.04 µM.

`CN(C)CCOc1ccc(-c2nc(-c3ccncc3)c(-c3ccc4c(c3)CC/C4=N\O)[nH]2)cc1` [SB590885]: the “anti-proliferation / anti-cancer activity in RD cells” value in series [6] is recorded as “higher anti-cancer activity”. The half-maximal inhibitory concentration (IC50) in series [6] (Homo sapiens) was found to be 2.52 µM; in series [8] (Homo sapiens, CCD-18Co, MTT), 4.88 µM. In addition, in series [2], the Iorio_SJCRH30 result is on record as “R”.

These data come from paper PMC10817174, “Integrated drug response prediction models pinpoint repurposed drugs with effectiveness against rhabdomyosarcoma” (PLOS ONE, 2024).
